“Also recorded” adds a separate entry of the source.
Assays:
[1] = test system: mucin production; test: Mucin production by PAS staining of lung tissue, OVA asthma model; type: in vivo, mice
Protocol: Following aspiration of BAL as described hereinabove, a thoracotomy was performed, and the right main bronchus was tied. The left lung was fixed by means of intrabronchial infusion with 1 ml of 4% formaldehyde, and then immersed in fixative (10% (v/v) neutral buffered formalin) for 24 hours at 4° C. Transverse sections of the left lung were embedded in paraffin, and […] sections were stained with hematoxylin and eosin (H&E) by Hadassah Hospital Pathology Service (Jerusalem, Israel). In addition, periodic acid-Schiff (PAS) staining was performed on lung tissue, and the degree of mucin production was measured from PAS staining.
In order to evaluate the effect of 3-CP on lung pathology, animals in an ovalbumin-induced asthma model were treated with 3-CP, and killed by abdominal aortic transaction and exsanguination, according to procedures described hereinabove. Lung tissue was examined by hematoxylin and eosin (H&E) staining, the degree of mucin production was determined from periodic-acid-Schiff (PAS) staining.

[2] = test system: 3-nitrotyrosine (3-NT); test: Protein nitration (3-nitrotyrosine) in lung homogenates, OVA asthma model; type: in vivo, mice; settings: 3-CP via all tested modes of delivery (oral, IP, IN), FIG. 8
Protocol: (§1) Bronchoalveolar lavage (BAL) fluid (also referred to herein as “BALf”) and bronchial submucosal inflammation are characteristic features of asthma. Mice were euthanized with an overdose of 50 mg/kg pentobarbital and ice-cold phosphate buffer saline (PBS) (0.6 ml) was instilled into the lungs. BAL fluid was obtained by three aspirations via tracheal cannulation, centrifuged, and the supernatant collected and stored at −70° C. Cell pellets were re-suspended in PBS and 100 μl aliquots placed onto slides and centrifuged (200 g, 4° C., 10 minutes) in a cytospin machine. Induction of oxidative stress was evaluated using a 2′,7′-dichlorofluorescein fluorescence assay, and total IgE, IgG2a, panel of cytokines, transforming growth factors, collagen, protein nitration and lipid peroxidation were measured using commercial kits according to the manufacturer's recommendations. A Sircol™ collagen assay kit was obtained from Biocolor Life Sciences Assays, a protein nitration assay kit was obtained from Abcam, and other assay kits were obtained from PeproTech Asia.
In order to determine whether 3-CP reduces protein nitration, a form of cell damage induced by peroxynitrite (an anion generally believed to be formed in vivo by a reaction of superoxide radical and nitric oxide), lung homogenates were assayed for 3-nitrotyrosine (3-NT) levels.

[3] = test system: IL-4; test: IL-4 level in OVA asthma model; type: in vivo, BALB/c mice
Protocol: (§2) All experimental procedures were carried out in accordance with the NIH Guidelines for the Care and Use of Laboratory Animals. Specific pathogen-free (SPF) male BALB/c mice (6-7 weeks of age, 18-22 grams), routinely screened serologically for relevant respiratory pathogens, were maintained in an animal housing facility for 1 week before use and given access to food and water ad libitum. Animals were randomly assigned to the indicated experimental groups, and sensitized with two intraperitoneal (IP) injections (20 μg ovalbumin (OVA) emulsified in 2 mg aluminum hydroxide (an adjuvant) in 200 μl phosphate buffer saline (PBS), pH 7.4), on days 1 and 10.
(§3) After another week, the animals were challenged by exposure to ovalbumin (OVA) aerosol (1%, w/v, in PBS) for 30 minutes each day on days 17, 18 and 19, in order to elicit an inflammatory reaction in the lungs characterized by airway hyper-responsiveness (AHR), an influx of inflammatory cells (particularly eosinophils), and increased pulmonary levels of various cytokines and transforming growth factors, protein nitration and lipid peroxidation.
as §1
The efficacy of oral administration of 3-CP (1 weight percent in chow) during the sensitization period and/or challenge period was then compared to IP injection (˜300 mg/kg, 0.5 hour before the OVA challenge) or intranasal instillation (˜150 mg/kg, 0.5 hour before the OVA and 6 hours later) of 3-CP, as well as to dexamethasone treatment (1 mg/kg, 3 daily IP injections, 0.5 hour prior to the challenge with OVA aerosol).
In order to assess the effect of 3-CP on inflammatory signaling pathways, […] to procedures described hereinabove, upon oral, intranasal or IP administration of 3-CP.

[4] = test system: ovalbumin-induced murine model of asthma; test: Inflammatory cell counts in BAL fluid in OVA asthma model; type: in vivo, BALB/c mice
Protocol: as §2, §3
The features of allergic inflammation typically reached their peak a day or two after the final exposure. Mice were then subjected to one of the following treatments: (i) sham-sensitization plus challenge with PBS; (ii) positive control-sensitization plus challenge with OVA; (iii) sensitization plus challenge with OVA and various indicated treatments (e.g., with nitroxide or dexamethasone), including different modes (oral, IP, intranasal, inhalation), time windows (sensitization stage, challenge stage, both stages and after the last challenge), and doses of nitroxide administration.
as §1
Control and experimental groups contained 10 mice each. The effects of the nitroxides were investigated by feeding the mice ad libitum a diet of nitroxide-containing chow (1 weight percent) during both ovalbumin (OVA)-induced sensitization and challenging periods (days −2-19), during the sensitization period (days −2-11) or challenge period (days 13-19). Nitroxide-containing chow were prepared by dissolving 500 grams chow in a minimum volume of water containing 5 grams nitroxide and 5 grams commercial chicken soup powder, preparing the chow and drying it at 37° C. (animals were reluctant to eat nitroxide-containing chow until chicken soup powder was added).
3-CP was also administered using 3 daily intraperitoneal (IP) injections (200 μl, 0.15 M, ˜300 mg/kg) 0.5 hour prior to the challenge with OVA aerosol, or by nasal instillation (50 μl, 0.3 M, ˜150 mg/kg) twice a day 0.5 hour prior to the challenge with OVA aerosol and 6 hours later without exceeding its maximally tolerated dose, which has been previously established to be 300-500 mg/kg. Both 3-CP and TPL were non-toxic when administered orally or via IP injection to untreated OVA-challenged mice for 22 days. […]

[5] = oral, 1 weight percent in chow, FIG. 4

SMILES: CC1(C)CC(C(N)=O)C(C)(C)N1[O] (stereo not drawn) [3-CP, 3-Carbamoyl-2,2,5,5-tetramethyl-pyrrolidin-1-oxyl]
- effect on mucin levels, PAS scoring ([1]; 3-CP via all tested modes of delivery, FIGS. 10 and 11): reduced the mucin levels
- reducing mucin levels, 3-CP compared with dexamethasone ([1]; FIG. 10): at least as effective as dexamethasone
- effect on pulmonary 3-NT levels [2]: markedly suppressed 3-NT levels as compared to the vehicle control as well as treatment with dexamethasone
- effect on OVA-induced increase in the level of IL-4 ([3]; FIG. 7A and Table 1): inhibited
- IL-4 level ([3]; OVA IP-C: 3-CP intraperitoneal during challenge): 1.70 ng/mg
- IL-4 level ([3]; OVA oral-C: 3-CP oral during challenge): 2.03 ng/mg
- IL-4 level ([3]; OVA oral-S&C: 3-CP oral during sensitization and challenge): 1.65 ng/mg
- IL-4 level ([3]; OVA oral-S: 3-CP oral during sensitization): 2.44 ng/mg
- modulating IL-4 level, oral compared with IP 3-CP ([3]; oral administration vs IP injection): consistently more effective than IP injection of 3-CP
- levels of inflammatory cells, oral 3-CP in both periods compared with other regimens ([4]; oral 1 weight percent in chow during sensitization and challenge periods, FIG. 5): more effective than IP injection or intranasal instillation of 3-CP, oral administration of 3-CP during the sensitization period or challenge period alone, or treatment with dexamethasone; also recorded: more effective than treatment with dexamethasone
- BAL inflammatory cell/eosinophil count attenuation, 3-CP compared with TPL [4, 5]: considerably more effective than TPL
- effect on OVA-induced increase in total inflammatory cell and eosinophil counts in BAL fluid [4, 5]: attenuated the increase in total inflammatory cell counts and eosinophil counts
